Experimental data reported in BindingDB's records for doi:10.1021/jm070851i (Wyeth Research, 2007).

Biological target: T1, 3-phosphoinositide-dependent protein kinase 1 (Homo sapiens, UniProt O15530)
T1 sequence (O15530 whole entry): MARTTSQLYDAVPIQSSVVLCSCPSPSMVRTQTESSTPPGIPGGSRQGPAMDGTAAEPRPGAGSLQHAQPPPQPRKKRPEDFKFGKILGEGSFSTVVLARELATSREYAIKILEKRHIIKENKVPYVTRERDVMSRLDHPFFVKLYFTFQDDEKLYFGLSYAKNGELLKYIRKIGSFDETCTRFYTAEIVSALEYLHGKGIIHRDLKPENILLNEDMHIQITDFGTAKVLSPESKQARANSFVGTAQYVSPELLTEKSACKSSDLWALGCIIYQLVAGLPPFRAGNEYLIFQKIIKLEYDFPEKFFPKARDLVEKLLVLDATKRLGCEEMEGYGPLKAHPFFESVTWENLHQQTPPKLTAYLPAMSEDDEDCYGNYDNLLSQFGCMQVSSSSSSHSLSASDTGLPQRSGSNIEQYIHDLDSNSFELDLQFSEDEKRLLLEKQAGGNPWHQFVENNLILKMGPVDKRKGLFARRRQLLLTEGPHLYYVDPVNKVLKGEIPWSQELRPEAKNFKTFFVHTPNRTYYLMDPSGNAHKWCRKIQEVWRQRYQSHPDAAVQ
Experiment: ELISA assay
Details: pH 7.4; 23 °C
Protocol: A homogeneous in vitro assay based on a LANCE format was first used for high-throughput screening. […] ELISA IC50s were determined by Microsoft Excel data analysis wizard model 63 with the luminescent signal from wells without compound treatment as 100%.

IC50: 300 nM
SMILES: COc1cc2c(cc1NCCN1CCOCC1)ncc1c(N)nc3c(C)c(N)ccc3c12 [16-methoxy-6-methyl-15-N-[2-(morpholin-4-yl)ethyl]-8,12-diazatetracyclo[8.8.0.0^{2,7}.0^{13,18}]octadeca-1(10),2(7),3,5,8,11,13,15,17-nonaene-5,9,15-triamine]
